Experimental data: patent US20070264247A1, “Use of Human Lysozyme in Preparation of Medicine for Treating Acne” (priority 2004, published 2007)
In brackets after ≈: the same amount, converted by molar mass. Like-named read-outs stand apart in the source and are kept apart here.

Experiments:
Assay in all cases: MIC by double agar dilution method, clinical isolates
Format in all cases: cell-based
Klebsiella pneumoniae = tested on: Klebsiella pneumoniae
Procedure: (§1) Strain: Pathogenic bacteria isolated from clinical laboratory collected from Sichuan, Beijing, 2002.4˜2003.9, assessed using the method of API in our laboratory.
(§2) Test the minimum inhibitory concentration (MIC) of the tested drug against the strains using the double agar dilution method. The tested drug was dissolved in sterile purified water and diluted properly. The drug-containing petri dishes were prepared by spiking 1 ml drug conclusion with melted 9 ml Tris —HCl agarose solid medium, using agar twofold dilution method and obtained the concentration of 4, 2, 1, 0.5, 0.25, 0.125, 0.06, 0.03 . . . 0.001 mg/ml. The strain solution of 10^5 CFU/ml was inoculated on the petri dishes using the multipoint inoculator, cultured for 8-10 h at 37° C., covered the petri dishes using melted 6 ml M-H Medium (50° C.) respectively, cultured for 10 h at 37° C. The minimal concentration of the drug-containing petri dishes which had no bacterium growth was the minimal inhibitory concentration (MIC).

Escherichia coli = tested on: Escherichia coli
Procedure: as §1, §2

[1] = tested on: Staphylococcu epidermidis
Procedure: as §1, §2

Staphylococcus aureus = tested on: Staphylococcus aureus
Procedure: as §1, §2

Serratia marcescens = tested on: Serratia marcescens
Procedure: as §1, §2

Propionibacterium = tested on: Propionibacterium
Procedure: as §1, §2

Structure (SMILES): CC[C@H]1OC(=O)[C@H](C)[C@@H](O[C@H]2C[C@@](C)(OC)[C@@H](O)[C@H](C)O2)[C@H](C)[C@@H](O[C@@H]2O[C@H](C)C[C@H](N(C)C)[C@H]2O)[C@](C)(OC)C[C@@H](C)C(=O)[C@H](C)[C@@H](O)[C@]1(C)O [CLA, Clarithromycin]
- MIC (Klebsiella pneumoniae; Klebsiella pneumoniae 02-6-14): 63 µg/mL (≈ 84.2 µM)
- MIC (Klebsiella pneumoniae; Klebsiella pneumoniae 02-6-18): 500 µg/mL (≈ 668 µM)
- MIC (Escherichia coli): 125 µg/mL (≈ 167 µM)
- MIC (Escherichia coli; Escherichia coli 03-2-41, read-out: MIC): > 1000 µg/mL
- MIC (Escherichia coli; Escherichia coli 03-2-42, read-out: MIC): 63 µg/mL (≈ 84.2 µM)
- MIC (Escherichia coli; Escherichia coli 03-2-43, read-out: MIC): 16 µg/mL (≈ 21.4 µM)
- MIC (Escherichia coli; Escherichia coli 03-2-45, read-out: MIC): 250 µg/mL (≈ 334 µM)
- MIC (Escherichia coli; Escherichia coli 03-2-51, read-out: MIC): > 1000 µg/mL
- MIC (Escherichia coli; Escherichia coli 03-2-52, read-out: MIC): > 1000 µg/mL
- MIC (Escherichia coli; Escherichia coli 03-2-53, read-out: MIC): 30 µg/mL (≈ 40.1 µM)
- MIC (Escherichia coli; Escherichia coli 03-2-54, read-out: MIC): > 1000 µg/mL
- MIC (Escherichia coli; Escherichia coli 03-2-56, read-out: MIC): 16 µg/mL (≈ 21.4 µM)
- MIC (Escherichia coli; Escherichia coli 03-2-57, read-out: MIC): 32 µg/mL (≈ 42.8 µM)
- MIC (Escherichia coli; Escherichia coli 03-2-58, read-out: MIC): > 1000 µg/mL
- MIC ([1]; Staphylococcu epidermidis MRSE02-3): > 1000 µg/mL
- MIC ([1]; Staphylococcu epidermidis MRSE02-4): 500 µg/mL (≈ 668 µM)
- MIC ([1]; Staphylococcu epidermidis MRSE02-5): < 1 µg/mL
- MIC ([1]; Staphylococcu epidermidis MRSE02-6): < 1 µg/mL
- MIC ([1]; Staphylococcu epidermidis MRSE02-10): 1000 µg/mL (≈ 1340 µM)
- MIC ([1]; Staphylococcu epidermidis MRSE02-11): < 1 µg/mL
- MIC ([1]; Staphylococcu epidermidis MRSE02-12): 8 µg/mL (≈ 10.7 µM)
- MIC ([1]; Staphylococcu epidermidis MRSE02-15): 1000 µg/mL (≈ 1340 µM)
- MIC ([1]; Staphylococcu epidermidis MRSE02-17): 250 µg/mL (≈ 334 µM)
- MIC ([1]; Staphylococcu epidermidis MRSE02-18): < 1 µg/mL
- MIC ([1]; Staphylococcu epidermidis MRSE02-20): > 1000 µg/mL
- MIC ([1]; Staphylococcu epidermidis MRSE02-20-1): < 1 µg/mL
- MIC ([1]; Staphylococcu epidermidis MRSE02-20-2): > 1000 µg/mL
- MIC ([1]; Staphylococcu epidermidis MRSE02-20-3): > 1000 µg/mL
- MIC ([1]; Staphylococcu epidermidis MRSE02-20-4): > 1000 µg/mL
- MIC ([1]; Staphylococcu epidermidis MRSE02-20-5): > 1000 µg/mL
- MIC ([1]; Staphylococcu epidermidis MRSE02-20-6): > 1000 µg/mL
- MIC ([1]; Staphylococcu epidermidis MRSE02-20-7): 1000 µg/mL (≈ 1340 µM)
- MIC ([1]; Staphylococcu epidermidis MRSE02-20-8): < 1 µg/mL
- MIC ([1]; Staphylococcu epidermidis MRSE02-20-9): < 1 µg/mL
- MIC ([1]; Staphylococcu epidermidis MRSE02-21): < 1 µg/mL
- MIC ([1]; Staphylococcu epidermidis MRSE02-22): < 1 µg/mL
- MIC ([1]; Staphylococcu epidermidis MRSE02-29): 30 µg/mL (≈ 40.1 µM)
- MIC ([1]; Staphylococcu epidermidis MssE25): < 1 µg/mL
- MIC (Staphylococcus aureus; Staphylococcus aureus 02-19-5): >1000 µg/mL
- MIC (Staphylococcus aureus; Staphylococcus aureus MRSA02-22, read-out: MIC): > 1000 µg/mL
- MIC (Staphylococcus aureus; Staphylococcus aureus MRSA02-23): >1000 µg/mL
- MIC (Staphylococcus aureus; Staphylococcus aureus MRSA02-26): >1000 µg/mL
- MIC (Staphylococcus aureus; Staphylococcus aureus MRSA02-28): >1000 µg/mL
- MIC (Serratia marcescens; Serratia marcescens 2-31-8 (first line)): 8 µg/mL (≈ 10.7 µM)
- MIC (Serratia marcescens; Serratia marcescens 2-31-8 (second line)): 8 µg/mL (≈ 10.7 µM)
- MIC (Serratia marcescens; Serratia marcescens 2-31-8 (third line)): 16 µg/mL (≈ 21.4 µM)
- MIC (Propionibacterium; Propionibacterium 02-7-4): 2 µg/mL (≈ 2.67 µM)
- MIC (Propionibacterium; Propionibacterium 02-7-5): < 1 µg/mL
- MIC (Propionibacterium; Propionibacterium 02-7-6): 8 µg/mL (≈ 10.7 µM)
- MIC (Propionibacterium; Propionibacterium 02-7-7): 32 µg/mL (≈ 42.8 µM)
- MIC (Propionibacterium; Propionibacterium 02-7-9): 8 µg/mL (≈ 10.7 µM)
- MIC (Propionibacterium; Propionibacterium 03-2-22): 1000 µg/mL (≈ 1340 µM)
- MIC (Propionibacterium; Propionibacterium 03-2-30): > 1000 µg/mL
- MIC (Propionibacterium; Propionibacterium 03-2-32): 8 µg/mL (≈ 10.7 µM)
- MIC (Propionibacterium; Propionibacterium 03-2-33): > 1000 µg/mL
- MIC (Propionibacterium; Propionibacterium 03-2-36): 250 µg/mL (≈ 334 µM)
- MIC (Propionibacterium; Propionibacterium 03-2-37): > 1000 µg/mL
- MIC (Propionibacterium; Propionibacterium 03-2-39): 500 µg/mL (≈ 668 µM)
